Measured values from PubChem BioAssay AID540268 (Broad Institute, 2011).

Assay: growth inhibition of yeast carrying parasite Hsp90, dose response, anti-malarial Hsp90 inhibitor project, ATP luminescence, 48 h, cherry-picked samples (AID 540268)
Conditions: yeast expressing the parasite Hsp90, ATP luminescence

Compound `O=[N+]([O-])c1ccc(NC(c2ccccc2)c2ccc3cccnc3c2O)cc1` (stereo not drawn) has an AC50 of under 195 nM.
Work on `CC(=O)N1CCN(c2ccc(OC[C@H]3CO[C@](Cn4ccnc4)(c4ccc(Cl)cc4Cl)O3)cc2)CC1` yielded an AC50 of 1290 nM.
`COc1ccc(C2=CC3=C(Br)C(=O)C(C)(OC(=O)C4CCCC4)C(=O)C3=CO2)cc1` (stereo not drawn) showed an AC50 of 4400 nM.
With `O=S(=O)(NC1CC2CCC1C2)c1ccc(Br)cc1` (stereo not drawn) the AC50 was 860 nM.
`CC(=NNC(=S)Nc1cccc(Cl)c1)c1ccccn1` gave an AC50 of 16600 nM.
`COC(=O)c1ccc(N2C(=O)CC(N3CCC(O)(c4ccc(Br)cc4)CC3)C2=O)cc1` (stereo not drawn) gave an AC50 of 3370 nM.
Compound `Cc1ccc(C)c(/C=C/C(=O)c2ccccc(=O)c2O)c1` has an AC50 of 2200 nM.
In the case of `O=C(Oc1c(Cl)cc(Cl)c2cccnc12)c1cccs1`, the AC50 was 4260 nM.
`O=C(/C=C/c1cccc([N+](=O)[O-])c1)c1ccc([N+](=O)[O-])o1` gave an AC50 of under 195 nM.
Work on `CC(=O)OC1(C)CC(C)C(=O)C(C(O)CC2CC(=O)NC(=O)C2)C1` (stereo not drawn) yielded an AC50 of under 195 nM.
With `Cc1ccc(O)c(-c2cc(-c3cccc(F)c3)n[nH]2)c1` the AC50 was 17200 nM.
Work on `CCOC(=O)c1ccc(N2C(=O)CC(N(C)CCc3ccc(OC)c(OC)c3)C2=O)cc1` (stereo not drawn) yielded an AC50 of 3140 nM.
With `Oc1ccccc1C1=NN(c2ccccc2)C(c2ccccc2)C1` (stereo not drawn) the AC50 was 4300 nM.
For `Cc1ccc(C(=O)c2coc3c2C(=O)C(=O)c2ccccc2-3)cc1`, the AC50 was 8160 nM.
In the case of `CCOC(=O)c1ccc(N2C(=O)C=CC2=O)cc1`, the AC50 was under 195 nM.
`O=S(=O)(c1c(F)cccc1F)N(CCc1ccc(F)cc1)C[C@@H](O)COCc1ccccc1` gave an AC50 of 1200 nM.
With `O=C(NNc1nc2ccc(Cl)cc2s1)c1cc(-c2cccs2)nc2ccccc12` the AC50 was 1490 nM.
For `COc1ccc2c(c1)[C@H]1[C@H](CO2)[C@H](c2ccccc2)[C@]2(C)C(=O)Nc3ccc(Cl)cc3C(=O)N12`, the AC50 was 1800 nM.
For `O=[N+]([O-])c1cc(-n2cnnn2)ccc1N1CCC(Cc2ccccc2)CC1`, the AC50 was 4230 nM.
`CCOC(=O)c1ccc(N2C(=O)CC(N3CCC(Nc4ccc(F)cc4)CC3)C2=O)cc1` (stereo not drawn) gave an AC50 of 4580 nM.
In the case of `C=CCn1c(O)c(C2=c3ccccc3=NC2=O)c2ccccc21`, the AC50 was 844 nM.
Work on `Cc1[nH]c(N=Nc2ccccc2)nc1N=Nc1ccccc1` yielded an AC50 of 4410 nM.
With `O=C1Nc2ccc(Br)cc2/C1=C/C(=O)c1ccc2c(c1)OCO2` the AC50 was 2630 nM.
With `O=C1C=CC(=O)N1c1ccc(OC(F)F)cc1` the AC50 was 421 nM.
In the case of `Oc1c(C(c2ccc(Cl)cc2)N2CCCC2)cc(Cl)c2cccnc12` (stereo not drawn), the AC50 was 1580 nM.
Work on `CCOC(=O)c1ccc(N2C(=O)CC(N3CCC(C(=O)OCC)CC3)C2=O)cc1` (stereo not drawn) yielded an AC50 of under 195 nM.
`Cn1c(O)c(C(=Nc2ccc(F)cc2)c2ccccc2Cl)c(=O)n(C)c1=O` showed an AC50 of 2280 nM.
Compound `Cc1ccc(C(C[N+](=O)[O-])c2c(N)n(C)c(=O)n(C)c2=O)cc1` (stereo not drawn) has an AC50 of 3330 nM.
In the case of `COc1ccc(C(=O)/C=C/C(=O)N(CC(=O)NC2CCCCC2)Cc2cccs2)c(O)c1`, the AC50 was 3300 nM.
In the case of `CCCCCCCCCCCCCCCC[n+]1ccc(/C=N/O)cc1`, the AC50 was under 195 nM.
Compound `Cc1[nH]n(-c2ccccc2)c(=O)c1C(C[N+](=O)[O-])c1ccc(Br)cc1` (stereo not drawn) has an AC50 of 8540 nM.
`Clc1ccc(C(Cn2ccnc2)OCc2csc3c(Cl)cccc23)c(Cl)c1` (stereo not drawn) gave an AC50 of under 195 nM.
`NC(=O)C1CCN(C2CC(=O)N(c3ccc(F)c(Cl)c3)C2=O)CC1` (stereo not drawn) showed an AC50 of 1670 nM.
